Measurements reported in patent publication US12678451B2, “Cannabinoid and omega fatty acid compositions and methods of using” (GreenWay Herbal Products, LLC, priority 2019, dated 2026).

What was measured:
[1] = system: cytokine levels in differentiated THP-1 cells treated with LPS; assay: THP-1 human cellular LPS cytokine assay, three independent experiments, total averaged suppression; details: for inhibition at 2 µM: Homo sapiens, THP-1, 4 h, read-out: % Cytokine Suppression (total averaged)
Protocol: Cells were seeded onto 24-, or 12-well plates and incubated for 48 hours to 72 hours to allow for differentiation. […] Supernatants were collected for quantification of human cytokine levels to assess the cytokine response. Cells remaining after the supernatant collection were tested to ensure they had at least 90% viability as determined by Alamar Blue assays. To conduct the Alamar Blue assays, supernatants were replaced with culture medium containing 1× Alamar Blue reagent and incubated overnight. Cell viability was assessed by measuring relative fluorescent units (RFU) on the SpectraMax M2e microplate reader (Molecular Devices Inc., Sunnyvale, Calif., USA) at Excitation 560 nm and Emission 590 nm. Controls included untreated cells with DMSO at the same concentration as the treated cells, LPS stimulated cells with DMSO at the same concentration as the treated cells and LPS stimulated cell with the various treatments. The levels of 42 of the most common human cytokines (Eve Technologies, Calgary, Canada Table 6) were determined by multi-plex analysis.
For this reason, the level of cytokine suppression was determined for each cytokine by each cannabinoid that was tested and the total averaged suppression for each cannabinoid was determined by dividing the total suppression by the number of the cytokines that were analyzed.

DPPH antioxidant assay = assay type: biochemical
Protocol: The ability of the cannabinoids to act as potential antioxidants was assessed using the 2,2-diphenyl-1-picrylhydrazyl (DPPH) antioxidant assay. The cannabinoids CBDA, CBD, CBDVA, CBDV, CBG, THCV, and the 1:1 CBD:CBDA mixture had the highest antioxidant activities with radical scavenging activities of 38.19%, 48.00%, 43.81%, 44.21%, 44.28%, 45.71%, and 43.74%, respectively.
The 2,2-diphenyl-1-picrylhydrazyl (DPPH) free radical (Alfa Aesar) was prepared at 0.1 mM in ethanol. The cannabinoids were tested at a final concentration of 100 uM. 2 uL of 7.5 mM stock solutions of the cannabinoids to be tested in DMSO were added to 148 uL of 0.1 mM DPPH to achieve a final concentration of 100 μM in the assay. Ascorbic acid (Thermo Scientific) at a final concentration of 10 mg/ml was used as a positive control. The reaction mixture was incubated in the dark at room temperature for 1 hour, the absorbance of the mixture was read at 517 nm using a Spectra Max 5M microplate reader (Molecular Devices, LLC, Sunnyvale, Calif., USA) and the absorbance was converted to percent radical scavenging activity (% RSA) using the following formula: % RSA=[(Absorbance of the control−Absorbance of the sample)/(Absorbance of the control)]×100.
Free radical production occurs when the immune system is activated and antioxidants represent potential effective treatments for inflammatory conditions and autoimmune diseases. […] The DPPH antioxidant assay can be used to measure the ability of a compound to scavenge free radicals by measuring the ability of compounds to hydrogenate and reduce DPPH. The DPPH assay was conducted on CBCA, CBDA, CBDVA, CBGA, CBLA, CBNA, THCVA, and their decarboxylated derivatives as well as the 1:1 CBD:CBDA mixture.

[2] = system: differentiated U-937 cells; assay: Human cellular U-937 autophagy induction assay (anti-LC3); assay type: cell-based; details: for activation at 1 µM: Homo sapiens, U-937, 12 h, read-out: Induction of autophagy with respect to the untreated control
Protocol: The induction of autophagy was monitored using anti-LC3 antibodies to detect LC3 on the autophagosome in human U-937 pro-monocytic histiocytic lymphoma cells (ATCC, Manassas, Va., USA), which generate morphologies characteristic of macrophages upon induction by various stimuli. U-937 cells were cultured in RPMI-1640 medium with L-glutamine and sodium bicarbonate (Sigma-Aldrich, St Louis, Mo.) supplemented with 10% fetal bovine serum (FBS) and 1% penicillin in 25 cm2 tissue flasks at 37° C. in a 5% CO2 humidified atmosphere and passaged every 2-3 days. U-937 cells were seeded in 96 well plates at 5×10^5 cells/mL and stimulated with 100 ng/mL PMA to induce differentiation for 24 hours. The cells were then treated with the various cannabinoids at 1.0 μM concentrations for 12 hours. 30 μM chloroquine was used as a positive control. After treatment, the cells were fixed using 3.7% formaldehyde in PBS for 15 minutes at room temperature and washed with PBS to remove the fixative. Permeabilization reagent (0.2% Triton X-100 in PBS) (Sigma-Aldrich) was added, the cells were incubated for 15 minutes at room temperature and then the cells were washed with PBS to remove the permeabilization reagent. LC3B rabbit polyclonal antibody (Invitrogen) was added at a final concentration of 0.5 μg/ml for 1 hour at room temperature and the cells were washed with PBS remove the primary antibody. Secondary conjugated goat anti-rabbit polyclonal antibody (Thermo Scientific) was then added at a final concentration of 2.0 μg/ml for 1 hour at room temperature. The cells were washed, Hoechst dye was added to stain the nucleus and the cells were imaged using an Arrayscan VTI high-content screening (HCS) reader (Thermo Scientific) with the appropriate filters and the data was analyzed using the vHCS Scan software.
Chloroquine at a concentration of 30 μM was included as a positive control. The ability to induce autophagy was determined as a percentage with respect to the untreated control.

With `CCCCCc1cc(O)c2c(c1)OC(C)(CCC=C(C)C)C=C2` (centres unmarked) [CBC, 2-Methyl-2-(4-methyl-3-penten-1-yl)-7-pentyl-2H-chromen-5-ol] the inhibition at 2 µM [1] was 22.6%, the “% RSA (radical scavenging activity)” value (DPPH antioxidant assay; 100 μM, 1 hour) was 31.95% and the “Fluorescence (LC3)” value ([2]; 1.0 μM, 12 hours) was 47.84. It also gave an activation at 1 µM [2] of -0.85%.

With `CCCCCc1cc(O)c(C/C=C(\C)CCC=C(C)C)c(O)c1` [CBG, 2-[(2E)-3,7-Dimethyl-2,6-octadien-1-yl]-5-pentyl-1,3-benzenediol] the “effectiveness at reducing elevated cytokine levels relative to dexamethasone” value [1] was “at least half as effective as dexamethasone”, the inhibition at 2 µM [1] was 35.8% and the “radical scavenging activity compared to the untreated control” value (DPPH antioxidant assay; 100 μM) was “at least two-fold”. For the same molecule, the “% RSA (radical scavenging activity)” value (DPPH antioxidant assay; 100 μM, 1 hour) was 44.28%, the “Fluorescence (LC3)” value ([2]; 1.0 μM, 12 hours) was 37.35 and the activation at 1 µM [2] was -22.6%.

For `CCCCCc1cc(O)c(C/C=C(\C)CCC=C(C)C)c(O)c1C(=O)O` [CBGA, 3-[(2E)-3,7-Dimethyl-2,6-octadien-1-yl]-2,4-dihydroxy-6-pentylbenzoic acid], the “effectiveness at reducing elevated cytokine levels relative to dexamethasone” value [1] was “at least half as effective as dexamethasone”, the inhibition at 2 µM [1] was 34.3% and the “% RSA (radical scavenging activity)” value (DPPH antioxidant assay; 100 μM, 1 hour) was 26.84%. The “Fluorescence (LC3)” value ([2]; 1.0 μM, 12 hours) was 37.47 and the activation at 1 µM [2] was -22.3%.

With `C=C(C)C1CCC(C)=CC1c1c(O)cc(CCC)cc1O` (centres unmarked) [CBDV, 2-(6-Isopropenyl-3-methyl-2-cyclohexen-1-yl)-5-propyl-1,3-benzenediol] the “effectiveness at reducing elevated cytokine levels relative to dexamethasone” value [1] was “at least half as effective as dexamethasone”, the inhibition at 2 µM [1] was 36.7% and the “radical scavenging activity compared to the untreated control” value (DPPH antioxidant assay; 100 μM) was “at least two-fold”. For the same molecule, the “% RSA (radical scavenging activity)” value (DPPH antioxidant assay; 100 μM, 1 hour) was 44.21%, the “Fluorescence (LC3)” value ([2]; 1.0 μM, 12 hours) was 38.19 and the activation at 1 µM [2] was -20.9%.

For `CCN(CC)CCCC(C)Nc1ccnc2cc(Cl)ccc12` (centres unmarked) [Chloroquine, chloroquine, reference compound], the “Fluorescence (LC3)” value ([2]; 30 uM, positive control) was 111.20.

For `CCCCCc1cc2c(c(O)c1C(=O)O)-c1cc(C)ccc1C(C)(C)O2` [CBNA, 1-Hydroxy-6,6,9-trimethyl-3-pentyl-6H-benzo[c]chromene-2-carboxylic acid], the “effectiveness at reducing elevated cytokine levels relative to dexamethasone” value [1] was “at least half as effective as dexamethasone”, the inhibition at 2 µM [1] was 34% and the “% RSA (radical scavenging activity)” value (DPPH antioxidant assay; 100 μM, 1 hour) was 24.92%. For the same molecule, the “Fluorescence (LC3)” value ([2]; 1.0 μM, 12 hours) was 36.89 and the activation at 1 µM [2] was -23.5%.

For `CCCc1cc(O)c2c(c1)OC(C)(C)[C@@H]1CCC(C)=C[C@@H]21` [THCV, (6aR,10aR)-6,6,9-trimethyl-3-propyl-6H,6aH,7H,8H,10aH-benzo[c]isochromen-1-ol], the “effectiveness at reducing elevated cytokine levels relative to dexamethasone” value [1] was “at least half as effective as dexamethasone”, the inhibition at 2 µM [1] was 34.8% and the “radical scavenging activity compared to the untreated control” value (DPPH antioxidant assay; 100 μM) was “at least two-fold”. The “% RSA (radical scavenging activity)” value (DPPH antioxidant assay; 100 μM, 1 hour) was 45.71%, the “Fluorescence (LC3)” value ([2]; 1.0 μM, 12 hours) was 42.14 and the activation at 1 µM [2] was -12.7%.

For `CCCCCc1cc(O)c2c(c1)OC(C)(C)c1ccc(C)cc1-2` [CBN, 6,6,9-Trimethyl-3-pentyl-6H-benzo[c]chromen-1-ol], the “effectiveness at reducing elevated cytokine levels relative to dexamethasone” value [1] was “at least half as effective as dexamethasone”, the inhibition at 2 µM [1] was 37% and the “% RSA (radical scavenging activity)” value (DPPH antioxidant assay; 100 μM, 1 hour) was 33.83%. The “Fluorescence (LC3)” value ([2]; 1.0 μM, 12 hours) was 40.80 and the activation at 1 µM [2] was -15.4%.

For `CCCc1cc2c(c(O)c1C(=O)O)[C@@H]1C=C(C)CC[C@H]1C(C)(C)O2` [THCVA, (6aR,10aR)-6a,7,8,10a-tetrahydro-1-hydroxy-6,6,9-trimethyl-3-propyl-6H-Dibenzo[b,d] pyran-2-carboxylic acid], the “effectiveness at reducing elevated cytokine levels relative to dexamethasone” value [1] was “at least half as effective as dexamethasone”, the inhibition at 2 µM [1] was 28.4% and the “% RSA (radical scavenging activity)” value (DPPH antioxidant assay; 100 μM, 1 hour) was 29.22%. For the same molecule, the “Fluorescence (LC3)” value ([2]; 1.0 μM, 12 hours) was 66.45 and the activation at 1 µM [2] was 37.7%.

In the case of `CCCCCc1cc2c(c(O)c1C(=O)O)[C@@H]1[C@H]3[C@H](CC[C@@]3(C)O2)C1(C)C` [CBLA, (1aS,3aR,8bR,8cR)-8-Hydroxy-1,1,3a-trimethyl-6-pentyl-1a,2,3,3a,8b,8c-hexahydro-1H-4-oxabenzo[f]cyclobuta[cd]indene-7-carboxylic acid], the “effectiveness at reducing elevated cytokine levels relative to dexamethasone” value [1] is reported as “at least half as effective as dexamethasone”, the inhibition at 2 µM [1] is reported as 34.4% and the “% RSA (radical scavenging activity)” value (DPPH antioxidant assay; 100 μM, 1 hour) is reported as 21.18%. For the same molecule, the “Fluorescence (LC3)” value ([2]; 1.0 μM, 12 hours) was 72.27 and the activation at 1 µM [2] was 49.8%.

With `CCCCCc1cc2c(c(O)c1C(=O)O)C=CC(C)(CCC=C(C)C)O2` (centres unmarked) [CBCA, 5-Hydroxy-2-methyl-2-(4-methyl-3-penten-1-yl)-7-pentyl-2H-chromene-6-carboxylic acid] the “effectiveness at reducing elevated cytokine levels relative to dexamethasone” value [1] was “at least half as effective as dexamethasone”, the inhibition at 2 µM [1] was 34.6% and the “% RSA (radical scavenging activity)” value (DPPH antioxidant assay; 100 μM, 1 hour) was 19.02%. For the same molecule, the “Fluorescence (LC3)” value ([2]; 1.0 μM, 12 hours) was 42.61 and the activation at 1 µM [2] was -11.7%.

In the case of `CCCCCc1cc(O)c2c(c1)OC1(C)CCC3C1C2C3(C)C` (centres unmarked) [CBL, 1,1,3a-Trimethyl-6-pentyl-1a,2,3,3a,8b,8c-hexahydro-1H-4-oxabenzo[f]cyclobuta[cd]inden-8-ol], the “effectiveness at reducing elevated cytokine levels relative to dexamethasone” value [1] is reported as “at least half as effective as dexamethasone”, the inhibition at 2 µM [1] is reported as 43.6% and the “% RSA (radical scavenging activity)” value (DPPH antioxidant assay; 100 μM, 1 hour) is reported as 30.84%. For the same molecule, the “Fluorescence (LC3)” value ([2]; 1.0 μM, 12 hours) was 76.86 and the activation at 1 µM [2] was 59.3%.

With `O=C1O[C@H]([C@@H](O)CO)C(O)=C1O` [Ascorbic acid, reference compound] the “% RSA (radical scavenging activity)” value (DPPH antioxidant assay; 10 mg/ml, positive control) was 94.00%.

In the case of `C=C(C)[C@@H]1CCC(C)=C[C@H]1c1c(O)cc(CCC)c(C(=O)O)c1O` [CBDVA, 2,4-Dihydroxy-3-[(1R,6R)-6-isopropenyl-3-methyl-2-cyclohexen-1-yl]-6-propylbenzoic acid], the “effectiveness at reducing elevated cytokine levels relative to dexamethasone” value [1] is reported as “at least half as effective as dexamethasone”, the inhibition at 2 µM [1] is reported as 32.4% and the “radical scavenging activity compared to the untreated control” value (DPPH antioxidant assay; 100 μM) is reported as “at least two-fold”. For the same molecule, the “% RSA (radical scavenging activity)” value (DPPH antioxidant assay; 100 μM, 1 hour) was 43.81%, the “Fluorescence (LC3)” value ([2]; 1.0 μM, 12 hours) was 39.29 and the activation at 1 µM [2] was -18.6%.
